# Measured values from patent US9796704B2, “Substituted quinazolines as receptor-type kinase inhibitors” (Symphony Evolution, Inc., priority 2002, dated 2017).
# What was measured:
# EphB4 = EphB4 (Homo sapiens (Human), UniProt P54760); experiment: EphB4 kinase inhibition, 33P phosphoryl transfer assay (radiometric); format: biochemical
# Method: Phosphorylated substrate products are quantified by scintillation spectrometry.
# Kinase activity and compound inhibition are investigated using one or more of the three assay formats described below. The ATP concentrations are selected near its Michaelis-Menten constant (KM) for each individual kinase. Dose-response experiments are performed at ten different inhibitor concentrations in a 384-well plate format. […] These parameters are obtained by nonlinear regression algorithm built into ActivityBase software (available from ID Business Solutions Ltd., of Guildford, Surrey, UK). ^33P Phosphoryl Transfer Assay (Radiometric)
# Greiner 384-well white clear bottom high binding plates (available from Greiner Bio-One, Inc., of Longwood, Fla.) are coated with 2 μg/well of protein or peptide substrate in a 50 μL volume overnight at ambient temperature. […] The coating solution is aspirated and the plates are washed once with 50 μL of assay buffer and padded dry. Subsequently compounds and enzymes are mixed with γ ^33P-ATP (3.3 μCi/nmol) in a total volume of 20 uL in suitable assay buffers (see Table 2). For example the final EphB4 reaction solution contains 20 mM TrisHCl, pH 7.5, 10 mM MgCl2, 0.01% Triton X-100, 0.1 mM NaVO3, 5 nM EphB4 enzyme and 5 μM ATP. […] The plates are subsequently washed 6-12 times with PBST or TBS buffer.
# EGFR = EGFR (Homo sapiens (Human), UniProt P00533); experiment: EGFR kinase inhibition, luciferase-coupled chemiluminescent assay (LCCA); conditions: read-out: EGFR IC50
# EphA2 = EphA2 (Homo sapiens (Human), UniProt P29317); experiment: EphA2 kinase inhibition, luciferase-coupled chemiluminescent assay (LCCA); conditions: read-out: EphA2 IC50
# Chain of EphA2 (P29317 598-890): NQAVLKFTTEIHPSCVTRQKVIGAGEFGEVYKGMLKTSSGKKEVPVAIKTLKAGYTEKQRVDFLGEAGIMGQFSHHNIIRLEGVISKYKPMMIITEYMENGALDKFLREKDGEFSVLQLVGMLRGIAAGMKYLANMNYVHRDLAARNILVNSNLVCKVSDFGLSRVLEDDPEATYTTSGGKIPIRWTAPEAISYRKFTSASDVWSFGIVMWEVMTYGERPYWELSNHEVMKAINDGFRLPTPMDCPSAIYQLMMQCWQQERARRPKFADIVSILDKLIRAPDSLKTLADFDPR
# Chain of EGFR (P00533 672-1210): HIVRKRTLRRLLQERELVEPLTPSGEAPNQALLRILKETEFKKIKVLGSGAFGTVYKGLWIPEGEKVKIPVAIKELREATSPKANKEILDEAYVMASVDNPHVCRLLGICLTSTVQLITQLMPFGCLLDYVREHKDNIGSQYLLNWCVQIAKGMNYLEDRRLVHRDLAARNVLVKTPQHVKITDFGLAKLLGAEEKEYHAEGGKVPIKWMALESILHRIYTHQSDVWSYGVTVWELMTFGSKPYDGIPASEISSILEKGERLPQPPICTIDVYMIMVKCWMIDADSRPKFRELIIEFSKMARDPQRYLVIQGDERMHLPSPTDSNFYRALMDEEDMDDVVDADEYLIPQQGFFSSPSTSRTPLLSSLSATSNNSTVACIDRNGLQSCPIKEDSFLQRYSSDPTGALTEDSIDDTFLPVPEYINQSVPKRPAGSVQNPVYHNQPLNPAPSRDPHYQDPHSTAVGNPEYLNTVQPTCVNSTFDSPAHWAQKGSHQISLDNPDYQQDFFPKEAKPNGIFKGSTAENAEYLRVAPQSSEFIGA
# Chain of EphB4 (P54760 605-890): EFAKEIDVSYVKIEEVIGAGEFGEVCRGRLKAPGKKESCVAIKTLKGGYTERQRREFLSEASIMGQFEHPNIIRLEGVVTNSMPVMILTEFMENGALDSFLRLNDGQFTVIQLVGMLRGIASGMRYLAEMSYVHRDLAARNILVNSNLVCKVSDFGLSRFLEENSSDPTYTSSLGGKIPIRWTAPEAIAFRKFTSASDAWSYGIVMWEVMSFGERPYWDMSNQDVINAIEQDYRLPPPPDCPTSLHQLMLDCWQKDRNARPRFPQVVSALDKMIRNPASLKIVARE
smiles,measurement,setting,value
"COc1cc2c(Nc3cccc(Cl)c3C)ncnc2cc1O[C@H]1CO[C@H]2[C@@H]1OC[C@@H]2OC [Example 76, 1,4:3,6-dianhydro-2-O-[4-[(3-chloro-2-methylphenyl)amino]-6-(methyloxy)quinazolin-7-yl]-5-O-methyl-L-iditol]",IC50,EphB4,50 to 1000 nM
same,IC50,EGFR,< 50 nM
same,IC50,EphA2,50 to 1000 nM
"CCN1CCCOC(COc2cc3ncnc(Nc4ccc(Cl)c(Cl)c4)c3cc2OC)C1 (stereo not drawn) [Example 241, N-(3,4-dichlorophenyl)-7-{[(4-ethyl-1,4-oxazepan-2-yl)methyl]oxy}-6-(methyloxy)quinazolin-4-amine]",IC50,EphB4,< 50 nM
same,IC50,EGFR,< 50 nM
same,IC50,EphA2,< 50 nM
"COc1cc2c(Nc3ccc(Cl)c(Cl)c3)ncnc2cc1OCC1CCCCC1 [Example 186, 7-[(cyclohexylmethyl)oxy]-N-(3,4-dichlorophenyl)-6-(methyloxy)quinazolin-4-amine]",IC50,EphB4,< 50 nM
same,IC50,EGFR,< 50 nM
same,IC50,EphA2,50 to 1000 nM
"COc1cc2c(Nc3ccc(Cl)c(Cl)c3)ncnc2cc1OCC1CN(C)CCN1C (stereo not drawn) [Example 268, N-(3,4-dichlorophenyl)-7-{[(1,4-dimethylpiperazin-2-yl)methyl]oxy}-6-(methyloxy)quinazolin-4-amine]",IC50,EphB4,50 to 1000 nM
same,IC50,EGFR,< 50 nM
same,IC50,EphA2,1000 to 20000 nM
"COc1cc2c(Nc3ccc(Cl)c(Cl)c3)ncnc2cc1OCC1CC1 [Example 182, 7-[(cyclopropylmethyl)oxy]-N-(3,4-dichlorophenyl)-6-(methyloxy)quinazolin-4-amine]",IC50,EphB4,50 to 1000 nM
same,IC50,EGFR,< 50 nM
same,IC50,EphA2,50 to 1000 nM
"COc1cc2c(Nc3ccc(Cl)c(Cl)c3)ncnc2cc1OCC1CN(CCOCCO)CCO1 (stereo not drawn) [Example 275, 2-({2-[2-({[4-[(3,4-dichlorophenyl)amino]-6-(methyloxy)quinazolin-7-yl]oxy}methyl)morpholin-4-yl]ethyl}oxy)ethanol]",IC50,EphB4,1000 to 20000 nM
same,IC50,EGFR,< 50 nM
same,IC50,EphA2,1000 to 20000 nM
"COc1cc2c(Nc3ccc(Cl)c(Cl)c3)ncnc2cc1OCc1nc(-c2ccc(O)c(C(N)=O)c2)cs1 [Example 200, 5-[2-({[4-[(3,4-dichlorophenyl)amino]-6-(methyloxy)quinazolin-7-yl]oxy}methyl)-1,3-thiazol-4-yl]-2-hydroxybenzamide]",IC50,EphB4,50 to 1000 nM
same,IC50,EGFR,< 50 nM
same,IC50,EphA2,50 to 1000 nM
"COc1cc2c(Nc3ccc(Cl)c(Cl)c3)ncnc2cc1OCc1nnc(-c2ccc(C)cc2)o1 [Example 228, N-(3,4-dichlorophenyl)-6-(methyloxy)-7-({[5-(4-methylphenyl)-1,3,4-oxadiazol-2-yl]methyl}oxy)quinazolin-4-amine]",IC50,EphB4,< 50 nM
same,IC50,EGFR,< 50 nM
same,IC50,EphA2,50 to 1000 nM
"COc1cc2c(Nc3ccc(Cl)c(Cl)c3)ncnc2cc1OCC1CN(CCCc2ccccc2)CCO1 (stereo not drawn) [Example 271, N-(3,4-dichlorophenyl)-6-(methyloxy)-7-({[4-(3-phenylpropyl)morpholin-2-yl]methyl}oxy)quinazolin-4-amine]",IC50,EphB4,50 to 1000 nM
same,IC50,EGFR,< 50 nM
same,IC50,EphA2,1000 to 20000 nM
"COc1cc2c(Nc3cc(Cl)ccc3Cl)ncnc2cc1O[C@@H]1CO[C@@H]2[C@H]1OC[C@H]2F [Example 118, 1,4:3,6-dianhydro-2-deoxy-5-O-[4-[(2,5-dichlorophenyl)amino]-6-(methyloxy)quinazolin-7-yl]-2-fluoro-D-iditol]",IC50,EphB4,< 50 nM
same,IC50,EGFR,< 50 nM
same,IC50,EphA2,< 50 nM
"COc1cc2c(Nc3ccc(Cl)c(Cl)c3)ncnc2cc1OCc1csc(C2CCCNC2)n1 (stereo not drawn) [Example 251, N-(3,4-dichlorophenyl)-6-(methyloxy)-7-{[(2-piperidin-3-yl-1,3-thiazol-4-yl)methyl]oxy}quinazolin-4-amine]",IC50,EphB4,50 to 1000 nM
same,IC50,EGFR,< 50 nM
same,IC50,EphA2,1000 to 20000 nM
"CCN1CCCCC1c1nc(COc2cc3ncnc(Nc4ccc(Cl)c(Cl)c4)c3cc2OC)cs1 (stereo not drawn) [Example 253, N-(3,4-dichlorophenyl)-7-({[2-(1-ethylpiperidin-2-yl)-1,3-thiazol-4-yl]methyl}oxy)-6-(methyloxy)quinazolin-4-amine]",IC50,EphB4,1000 to 20000 nM
same,IC50,EGFR,< 50 nM
same,IC50,EphA2,1000 to 20000 nM
"COc1cc2c(Nc3ccc(Cl)c(Cl)c3)ncnc2cc1OC[C@H]1O[C@H](OC)[C@H](O)[C@@H](O)[C@@H]1O (stereo in doubt) [Example 194, methyl 6-O-[4-[(3,4-dichlorophenyl)amino]-6-(methyloxy)quinazolin-7-yl]-alpha-D-glucopyranoside]",IC50,EphB4,< 50 nM
same,IC50,EGFR,< 50 nM
same,IC50,EphA2,50 to 1000 nM
"CCO[C@H]1CO[C@H]2[C@@H]1OC[C@@H]2Oc1cc2ncnc(Nc3ccc(Br)c(Cl)c3)c2cc1OC [Example 74, 1,4:3,6-dianhydro-2-O-[4-[(4-bromo-3-chlorophenyl)amino]-6-(methyloxy)quinazolin-7-yl]-5-O-ethyl-L-iditol]",IC50,EphB4,50 to 1000 nM
same,IC50,EGFR,< 50 nM
same,IC50,EphA2,1000 to 20000 nM
"COc1cc2c(Nc3ccc(Cl)c(Cl)c3)ncnc2cc1OCC1CN(CCCCCC#N)CCO1 (stereo not drawn) [Example 277, 6-[2-({[4-[(3,4-dichlorophenyl)amino]-6-(methyloxy)quinazolin-7-yl]oxy}methyl)morpholin-4-yl]hexanenitrile]",IC50,EphB4,50 to 1000 nM
same,IC50,EGFR,< 50 nM
same,IC50,EphA2,1000 to 20000 nM
"COc1cc2c(Nc3ccc(Cl)c(Cl)c3)ncnc2cc1OCCC1OCCO1 [Example 188, N-(3,4-dichlorophenyl)-7-{[2-(1,3-dioxolan-2-yl)ethyl]oxy}-6-(methyloxy)quinazolin-4-amine]",IC50,EphB4,50 to 1000 nM
same,IC50,EGFR,< 50 nM
same,IC50,EphA2,50 to 1000 nM
"COc1cc2c(Nc3ccc(Cl)c(Cl)c3)ncnc2cc1OCc1nc(N2CCNCC2)no1 [Example 217, N-(3,4-dichlorophenyl)-6-(methyloxy)-7-{[(3-piperazin-1-yl-1,2,4-oxadiazol-5-yl)methyl]oxy}quinazolin-4-amine]",IC50,EphA2,< 50 nM
"COc1cc2c(Nc3ccc(Cl)c(Cl)c3)ncnc2cc1OCc1noc(C2CCNCC2)n1 [Example 141, N-(3,4-dichlorophenyl)-6-(methyloxy)-7-{[(5-piperidin-4-yl-1,2,4-oxadiazol-3-yl)methyl]oxy}quinazolin-4-amine]",IC50,EphB4,50 to 1000 nM
same,IC50,EGFR,< 50 nM
"COc1cc2c(Nc3ccc(F)c(Cl)c3F)ncnc2cc1O[C@@H]1CO[C@@H]2[C@H]1OC[C@H]2F [Example 137, 1,4:3,6-dianhydro-5-O-[4-[(3-chloro-2,4-difluorophenyl)amino]-6-(methyloxy)quinazolin-7-yl]-2-deoxy-2-fluoro-D-iditol]",IC50,EphB4,< 50 nM
same,IC50,EGFR,< 50 nM
"COc1cc2c(Nc3ccc(Cl)c(Cl)c3)ncnc2cc1OCc1noc(C2CCCNC2)n1 (stereo not drawn) [Example 153, N-(3,4-dichlorophenyl)-6-(methyloxy)-7-{[(5-piperidin-3-yl-1,2,4-oxadiazol-3-yl)methyl]oxy}quinazolin-4-amine]",IC50,EphB4,50 to 1000 nM
same,IC50,EGFR,< 50 nM
"COc1cc2c(Nc3ccc(Cl)c(Cl)c3)ncnc2cc1OCc1nc(CN(C)C)no1 [Example 139, N-(3,4-dichlorophenyl)-7-[({3-[(dimethylamino)methyl]-1,2,4-oxadiazol-5-yl}methyl)oxy]-6-(methyloxy)quinazolin-4-amine]",IC50,EphB4,50 to 1000 nM
same,IC50,EGFR,< 50 nM
"COc1cc2c(Nc3ccc(Cl)c(Cl)c3)ncnc2cc1OCc1c(F)cccc1F [Example 233, N-(3,4-dichlorophenyl)-7-{[(2,6-difluorophenyl)methyl]oxy}-6-(methyloxy)quinazolin-4-amine]",IC50,EphB4,< 50 nM
same,IC50,EGFR,< 50 nM
"COc1cc2c(Nc3ccc(Br)c(Cl)c3)ncnc2cc1O[C@H]1CO[C@@H]2C3OC(C)(C)O[C@H]3O[C@H]12 (stereo partly drawn) [Example 80, 3,6-anhydro-5-O-[4-[(4-bromo-3-chlorophenyl)amino]-6-(methyloxy)quinazolin-7-yl]-1,2-O-(1-methylethylidene)-beta-L-xylo-hexofuranose]",IC50,EphB4,< 50 nM
same,IC50,EGFR,< 50 nM
"COc1cc2c(Nc3ccc(Cl)c(Cl)c3)ncnc2cc1OCc1csc(-c2ccc(C(F)(F)F)cc2)n1 [Example 222, N-(3,4-dichlorophenyl)-6-(methyloxy)-7-[({2-[4-(trifluoromethyl)phenyl]-1,3-thiazol-4-yl}methyl)oxy]quinazolin-4-amine]",IC50,EphB4,50 to 1000 nM
same,IC50,EGFR,< 50 nM
"COc1cc2c(Nc3cccc(F)c3F)ncnc2cc1O[C@@H]1CO[C@@H]2[C@H]1OC[C@H]2F [Example 92, 1,4:3,6-dianhydro-2-deoxy-5-O-[4-[(2,3-difluorophenyl)amino]-6-(methyloxy)quinazolin-7-yl]-2-fluoro-D-iditol]",IC50,EphB4,< 50 nM
same,IC50,EGFR,< 50 nM
"COc1cc2c(Nc3ccc(Cl)c(Cl)c3)ncnc2cc1OCc1cccnc1 [Example 179, N-(3,4-dichlorophenyl)-6-(methyloxy)-7-[(pyridin-3-ylmethyl)oxy]quinazolin-4-amine]",IC50,EGFR,< 50 nM
same,IC50,EphA2,1000 to 20000 nM
"COc1cc2c(Nc3ccc(Cl)c(Cl)c3)ncnc2cc1OCC1CN(Cc2ccccc2)CCO1 (stereo not drawn) [Example 147, N-(3,4-dichlorophenyl)-6-(methyloxy)-7-({[4-(phenylmethyl)morpholin-2-yl]methyl}oxy)quinazolin-4-amine]",IC50,EphB4,50 to 1000 nM
same,IC50,EGFR,< 50 nM
